Key:
E. coli CA-20 = assay: MIC assessment (TREK Sensititre); type: cell-based, Escherichia coli; settings: Escherichia coli, CA20; E. coli CA-20; read-out: MIC
Description: (§1) Bacterial strains. Multiple Amp^r strains from feces of broiler chickens without antibiotic treatment were recovered on Columbia blood Agar base (Becton, […] Dickinson and Company, Franklin Lakes, NJ) supplemented with 5% defibrinated sheep blood (Thermo Scientific™, Grand Island, NY). The strains were maintained in Columbia broth (Becton Dickinson and Company, Franklin Lakes, NJ), and propagated by aerobic growth at 37° C., and further subjected to strain identification and Minimum Inhibition Concentration (MIC) assessments.
(§2) Minimum inhibition concertation (MIC) assessment. A TREK Sensititre diagnostic system (Thermo scientific, Oakwood Village, OH, USA) was used to assess the AR phenotype and MIC of isolated strains. Protocols to use this system can be found on www.trekds.com. Cation-adjusted Mueller Hinton Broth (Becton, Dickinson and Company, MD, USA) was used as basic medium.

E. coli CA-4 = assay: MIC assessment (TREK Sensititre); type: cell-based, Escherichia coli; settings: Escherichia coli, CA4; E. coli CA-4; read-out: MIC
Description: as §1, §2

Three Amp^r E. coli = assay: MIC assessment, summary for the three strains; type: cell-based, Escherichia coli; settings: E. coli CA-1, CA-4 and CA-20 together
Description: as §1, §2

CG-12 = assay: Screening of antibiotic susceptible commensal strains on antibiotic agar plates; type: cell-based, Lactobacillus crispatus; settings: 16 μg/mL tetracycline, 100 μg/mL erythromycin, 32 μg/mL ampicillin, 152 μg/mL sulfamethoxazole with 8 μg/mL trimethoprim
Description: Multiple commensal bacterial strains from chicken feces were recovered from Columbia blood Agar base (Becton, […] Dickinson and Company, Franklin Lakes, NJ) supplemented with 5% defibrinated sheep blood (Thermo Scientific™, Grand Island, NY), and maintained in Columbia broth (Becton Dickinson and Company, Franklin Lakes, NJ) and propagated by anaerobic growth at 37° C. The strains were subjected to antibiotic susceptibility assessment followed by strain identification.
Screening of antibiotic susceptible commensal strains. Recovered commensal strain isolates (over 1000 colonies) were spotted on Columbia broth (Becton, […] Dickinson and Company, Franklin Lakes, NJ) agar plates containing each of the four antibiotics for rapid assessment of phenotypic resistance profiles. Screened antibiotics included 16 μg/mL tetracycline (Sigma-Aldrich, St. Louis, MO, USA), 100 μg/mL erythromycin (Fisher Scientific, Waltham, MA, USA), 32 μg/mL ampicillin (Sigma-Aldrich), and 152 μg/mL sulfamethoxazole (Sigma-Aldrich) with 8 μg/mL trimethoprim (Sigma-Aldrich).

poultry gut microbiota = assay: Impact of ampicillin administration routes on poultry gut microbiota (FIG. 7); type: in vivo, chickens; settings: Day 25
From the text: (A) NI-Saline-PO; (B) NI-Amp-IM; (C) NI-Amp-PO; (D) Amp-IM; (E) Amp-PO.
The impact of ampicillin administration routes and inoculation of Amp^r E. coli on poultry gut microbiota. FIG. 7A-B illustrates the impact of ampicillin application on gut microbiota of chickens. The data illustrated that without antibiotic application (FIG. 7A), Lactobacillus dominant, E. coli/Shegilla insignificant. […] The results clearly illustrated the major impact on oral ampicillin administration on poultry gut microbiota by diminishing Lactobacillus, increasing Clostridium, and massively increase […] due to Amp^r E. coli in inoculated chickens and Klebsiella in non-inoculated chickens.

[1] = test system: Amp^r (ESBL) Escherichia coli strains M9-1, M9-4, M9-12 and 933-36; assay: MIC of the Amp^r marker strains (previously identified); type: cell-based; settings: antibiotic not given
fecal microbiota = assay: Chicken study, probiotics and ESBL E. coli followed by oral or injected Amp (FIG. 6); type: in vivo, chickens; settings: Group 7 and Group 5, with or without ESBL E. coli inoculation
From the text: FIGS. 6A and 6B show probiotics and ESBL inoculation on the profiles of poultry fecal microbiota followed by oral or injective antibiotic treatment. FIG. 6A) Phylum level; FIG. 6B) Class level. Group 1: probiotic cocktail treatment throughout, E coli exposure from Day 5 for 4 days and then oral Amp; Group 2: probiotic/peanut butter treatment throughout followed by E coli exposure and then oral Amp; Group 3: inoculated (E coli) then exposed to oral Amp, Group 4: noninoculated then exposed to oral Amp, Group 5: noninoculated then exposed to injective Amp, Group 6: noninoculated then exposed to saline; Group 7: inoculated (E coli) then exposed to injective Amp.
It was recognized that even if antibiotic resistant bacteria may be reduced by probiotic treatment, some of those resistant bacteria seeds might still retain in the microbiota, and could pop up again when exposed to antibiotics. Therefore in another set of the experiment, following probiotic and ESBL E. coli exposure, the chickens were further treated with Amp by oral or muscle injection. […] But Probiotic treated chickens (Group 1 &2) retained more Firmicutes or Cynobacteria than chickens without probiotic treatment (Group 3 with inoculated ESBL E. coli & Group 4 natural flora, with one outlier). […]

E. coli CA-1 = assay: MIC assessment (TREK Sensititre); type: cell-based, Escherichia coli; settings: Escherichia coli, CA1; E. coli CA-1; read-out: MIC
From the text: Bacterial strains. Multiple Amp^r strains from feces of broiler chickens without antibiotic treatment were recovered on Columbia blood Agar base (Becton, […] Dickinson and Company, Franklin Lakes, NJ) supplemented with 5% defibrinated sheep blood (Thermo Scientific™, Grand Island, NY).
as §2

CC1(C)S[C@@H]2[C@H](NC(=O)[C@H](N)c3ccccc3)C(=O)N2[C@H]1C(=O)O [AMP, ampicillin]
MIC (E. coli CA-20): > 16 µg/mL
MIC (E. coli CA-4): > 16 µg/mL
resistance phenotype from MIC, in words (Three Amp^r E. coli): high resistance
phenotypic susceptibility on antibiotic agar plates (CG-12): susceptible
change of gut microbiota (poultry gut microbiota; muscle injection, inoculated with E. coli cocktail (FIG. 7D)): Firmicutes still dominant but with which Lactobacillus drastically reduced
change of gut microbiota (poultry gut microbiota; muscle injection, without inoculation of E. coli cocktail (FIG. 7B)): minimal changes
change of gut microbiota (poultry gut microbiota; oral feeding, inoculated with E. coli cocktail (FIG. 7E)): Firmicutes changed from dominant to minority
change of gut microbiota (poultry gut microbiota; oral, without inoculation of E. coli cocktail (FIG. 7C)): decrease of Firmicutes (still dominant) and significant increase of Proteobacteria
MIC [1]: > 256 µg/mL
retention of Firmicutes, injection versus oral (fecal microbiota): significant difference in retaining Firmicutes
MIC (E. coli CA-1): > 16 µg/mL

Reference: patent publication US12558386B2, “Methods and compositions to modulate antibiotic resistance and gastrointestinal microbiota” (OHIO STATE INNOVATION FOUNDATION, priority 2018, dated 2026)
